Here are results for one molecule from patent US12473249B2, “Aromatic compounds and pharmaceutical uses thereof” (BASF AS, priority 2018, dated 2025).

Common to all, as to format: in vivo, mouse
Data set [1] concerns ob/ob AMLN mice. The experiment in a line: Glycemic control (oral glucose tolerance test, fasting glucose and insulin) in ob/ob AMLN mice. The following applies: 0.3 mmol/kg bw day. The method, then:
ob/ob mice are consistently fibrosis (liver) prone when cholesterol (2%) and 40% fat (containing 18% trans-fatty acids) and 20% fructose are added to a high-caloric diet (i.e., AMLN diet). ob/ob mice on AMLN diet (termed ‘ob/ob AMLN mice’) develop steatohepatitis and fibrosis within a shorter timeframe (<12 weeks) compared with wild-type C57BL/6 mice (AMLN mice) fed the same diet. ob/ob AMLN mice provide an obese diet-induced model of NASH that also allows the study of effects on glycemic control.
Thirty male ob/ob mice (5 weeks old) were fed the AMLN diet for 15 weeks then randomised into 3 groups of 10 mice/group to receive Compound B or Compound A (both at 0.3 mmol/kg bw day) or no treatment (vehicle) for a further 4 weeks. Assessment of the hepatic expression of key genes regulating plasma lipid concentrations (LDLr), hepatic fibrosis (collA1), bile acid transport/re-uptake (Slc51b and Slc10a2) and inflammation (CD68) was made via RNA sequencing at 4 weeks. […] An additional group of mice (n=5) were also treated with a PPAR-γ agonist (pioglitazone, 30 mg/kg bw day) was also included to compare effects upon bodyweight.

Data set [2] deals with C57BL/6 mice. The experiment in a line: Hepatic steatosis and organ mass in oral PN diet fed C57BL/6 mice, subsequent experiment at two dosages (H&E). The following applies: 19 days. The text has this:
Male C57BL/6 mice, 6 to 8 weeks old at initiation of the experiments, were used for all experimental groups. Mice were fed either an ad libitum diet of standard rodent chow (calorie composition: 26% protein, 14% fat, 60% carbohydrates) and water or a parenteral nutrition (PN) solution that mimics the PN diet used in neonatal intensive care units. The PN solution was a fat-free, high-carbohydrate liquid diet (20% dextrose, 2% essential and nonessential amino acids, 0.2% pediatric trace elements, 0.5% pediatric multivitamins, 30 mEq of sodium, 20 mEq of potassium, 15 mEq of calcium (as calcium gluconate), 10 mEq of magnesium, 10 mEq of phosphate, 5 mEq of acetate, and 30 mEq of chloride per liter) administered as a single 50 mL bottle per cage which mice consumed ad libitum. […] Prince et al., JPEN J Parenter Enteral Nutr., 2014; 38(5): 608-616.
In a subsequent experiment, both Compound A and Compound B were tested at two dosages. The results of this experiment are described in Example 15.
Male C57BL/6 mice, 6 to 8 weeks old at initiation of the experiments, were used for all experimental groups. One group was fed an ad libitum diet of standard rodent chow and water. The group fed standard rodent chow received no additional treatments during the experimental period and served as a negative control group. Seven other groups (10 mice per group) were fed the PN solution described above ad libitum.
Of the seven groups that received the PN diet, each group received one of the following orogastric protocols administered every other day over 19 days: • (1) Saline: saline solution administered isovolumetric with the Omegaven® group; • (2) MCT: medium-chain triglyceride oil (MCT) (Nestle™ HealthCare Nutrition, Florham Park, NJ), at a dose of 7.4 g of fat/kg body weight; • (3) Omegaven®: Omegaven® (commercial fish oil lipid emulsion) at a dose of 2.4 g fat/kg body weight; • (4) Compound A LOW: Compound A at a dose of 0.3 mmol/kg bw day (diluted in MCT to 0.0375 mmol/mL, resulting in administration of 7.4 g of MCT/kg weight); • (5) Compound A HI: Compound A at a dose of 0.6 mmol/kg bw day (diluted in MCT to 0.075 mmol/mL, resulting in administration of 7.4 g of MCT/kg weight); • (6) Compound B LOW: Compound B at a dose of 0.3 mmol/kg bw day (diluted in MCT to 0.0375 mmol/mL, resulting in administration of 7.4 g of MCT/kg weight); and • (7) Compound B HI: Compound B at a dose of 0.6 mmol/kg bw day (diluted in MCT to 0.075 mmol/mL, resulting in administration of 7.4 g of MCT/kg weight).
After 19 days of treatment, organs were harvested, including the liver, kidney, and spleen, which were analyzed for relative weight between each group. Livers were also fixed and frozen on dry ice, then stored at −80° C. for hematoxylin and eosin (H&E) stain analysis and Oil Red O analysis.

Data set [3] deals with C57BL/6 mice. The experiment in a line: Hepatic steatosis in PN-fed C57BL/6 mice intravenously administered saline, Intralipid or Omegaven. The method, then: Male C57BL/6 mice, 6 to 8 weeks old at initiation of the experiments, were used for all experiments. One group was fed an ad libitum diet of standard rodent chow and water. Six other groups (10 mice per group) were fed a parenteral nutrition (PN) solution ab libitum as described above.
The PN-fed groups received tail vein injections every other day of saline, Omegaven® dosed at 2.4 g/kg/day, or Intralipid® (commercial soybean oil lipid emulsion) dosed at 2.4 g/kg/day and were treated with orogastric gavage administration (every other day) of either MCT or Compound A dosed at 0.6 mmol/kg bw. Intravenous saline was isovolumetric to Intralipid® groups. MCT orogastric gavage was isovolumetric to Compound A treatment (200 μl). The 6 experimental PN diet groups are listed below: • (1) Saline (intravenous)+PN+MCT (gavage) • (2) Intralipid® (intravenous)+PN+MCT (gavage) • (3) Omegaven® (intravenous)+PN+MCT (gavage) • (4) Saline (intravenous)+PN+Compound A (gavage) • (5) Intralipid® (intravenous)+PN+Compound A (gavage) • (6) Omegaven® (intravenous)+PN+Compound A (gavage)

The mark [4] stands for this setting: oral PN diet, high and low dosages, FIG. 18.
The mark [5] stands for this setting: PN diet, 19 days, 0.6 mmol/kg bw by gavage, FIGS. 20-21.

For `CCCCCOc1cccc(C(=O)O)c1C` [Compound A, 2-methyl-3-(pentyloxy)benzoic acid], in data set [1] (after 3 weeks treatment, FIG. 1), the “total plasma glucose (area-under-the-curve from 0-240 mins) versus vehicle in response to an oral glucose load” value is given as “significantly reduce”. The “plasma glucose at 30- and 60-mins versus vehicle in response to an oral glucose load” value in data set [1] (after 3 weeks treatment, FIG. 2) is given as “significantly reduce”. Also, the “fasting plasma insulin versus vehicle” value in data set [1] (after 4 weeks treatment, FIG. 3) is given as “reduce”. Moreover, the “fasting plasma glucose versus vehicle” value in data set [1] (after 4 weeks treatment, FIG. 4) is “significantly reduce”. The “development of steatosis induced by an oral PN diet (H&E stain in isolated liver sections)” value in data set [2] (0.3 and 0.6 mmol/kg bw day in MCT by orogastric gavage, FIGS. 14-17) is on record as “prevented the development of steatosis”. In addition, in data set [2] (setting [4]), the “body mass vs chow-fed or PN-fed saline groups” value is “not significantly different”, the “liver/body mass vs chow-fed or PN-fed saline groups” value is reported as “not significantly different” and the “spleen/body mass vs chow-fed or PN-fed saline groups” value is recorded as “not significantly different”. The “development of steatosis induced by an oral PN diet (H&E stain in isolated liver sections)” value in data set [3] (PN diet with intravenous saline, Intralipid or Omegaven, 0.6 mmol/kg bw by gavage every other day, FIGS. 22-25) was “prevented the development of steatosis”. Moreover, the “development of steatosis (Oil Red O stain in isolated liver sections)” value in data set [3] (PN diet with intravenous saline, Intralipid or Omegaven, 0.6 mmol/kg bw by gavage every other day, FIGS. 26-29) is recorded as “prevented the development of steatosis”. Also, in data set [3] (PN diet with intravenous saline, Intralipid or Omegaven, 0.6 mmol/kg bw by gavage, FIG. 30), the “quantification of lipid accumulation (Oil Red O) as compared with the chow-fed control” value is “prevented the development of steatosis”. In data set [3] (setting [5]), the “normalized body mass vs any other experimental group” value is reported as “not significantly different”, the “normalized kidney mass vs any other experimental group” value is “not significantly different”, the “normalized liver mass vs any other experimental group” value is “not significantly different” and the “normalized spleen mass vs any other experimental group” value is given as “not significantly different”.
